Measurements taken from paper PMC10553838, “Functional and structural insights into the multi-step activation and catalytic mechanism of bacterial ExoY nucleotidyl cyclase toxins bound to actin-profilin” (PLOS Pathogens, 2023).

Tests used:
Assay type in all cases: biochemical
[1] = target: T1, Vn-ExoY (Vn-ExoY^455-863) activated by G-actin-ATP/ADP-LatB (Vibrio nigripulchritudo, UniProt A0A9P1NJI6); experiment: cCMP synthesis, [alpha-33P]NTP assay; conditions: 2 mM CTP, MgCl2, 6 uM LatB-Mg-G-actin, pH 8.0, 30 °C; labelled compound
T1 construct: gene VIBNI_0210; ExoY effector domain of MARTX toxin, residues 3455-3863, N-terminal twin-Strep-tag with PreScission site (cleaved for crystals), E. coli BL21(DE3); with rabbit skeletal muscle G-actin; with Actin, alpha skeletal muscle

[2] = target: T2, Pa-ExoY activated by F-actin (Pseudomonas aeruginosa, UniProt O85345); experiment: cGMP synthesis, [alpha-33P]NTP assay; conditions: 2 mM GTP, MgCl2, 3 uM Mg-F-actin, pH 8.0, 30 °C; labelled compound
T2 construct: residues 20-378, N-terminal twin-Strep-tag (ST2), E. coli BL21(DE3), 44 kDa monomer; with Actin, alpha skeletal muscle

[3] = target: T2, Pa-ExoY activated by F-actin; experiment: cUMP synthesis, [alpha-33P]NTP assay; conditions: 2 mM UTP, MgCl2, 6 uM Mg-F-actin, pH 8.0, 30 °C; labelled compound

Nc1ccn([C@@H]2O[C@H](COP(=O)(O)OP(=O)(O)OP(=O)(O)O)[C@@H](O)[C@H]2O)c(=O)n1 [CTP]
cCMP synthesis, [alpha-33P]NTP assay [1]: cCMP synthesis catalysed by wild-type or mutants of Vn-ExoY activated by G-actin

Nc1nc2c(ncn2[C@@H]2O[C@H](COP(=O)(O)OP(=O)(O)OP(=O)(O)O)[C@@H](O)[C@H]2O)c(=O)[nH]1 [GTP]
cGMP synthesis, [alpha-33P]NTP assay [2]: cGMP synthesis catalysed by wild-type or mutants of Pa-ExoY activated by F-actin

O=c1ccn([C@@H]2O[C@H](COP(=O)(O)OP(=O)(O)OP(=O)(O)O)[C@@H](O)[C@H]2O)c(=O)[nH]1 [UTP]
cUMP synthesis, [alpha-33P]NTP assay [3]: cCMP and cUMP synthesis catalysed by wild-type or mutants of Pa-ExoY activated by F-actin
